System: adult T. muris
Test: Ex vivo adult T. muris automated motility assay (primary/secondary screen at 100 μM and dose-response)
Design: species or system Trichuris muris
Conditions: 100 μM; for COMBINED_SCREEN_ACTIVITY: combined primary and secondary screen minus log fold change in movement, adult T. muris; for PRIMARY_SCREEN_MINUS_LOG_FOLD_CHANGE_MOVEMENT: primary screen
Protocol: Severe combined immune deficiency (SCID) mice were bred in the Biological Services Facility at the University of Manchester. Both male and female SCID mice were infected with a high dose of 200 infective embryonated T. muris eggs via oral gavage. At day 35 post-infection, groups of 5 mice were killed and their […] colons removed. Guts were opened longitudinally, washed with pre-warmed Roswell Park Memorial Institute (RPMI) 1640 media supplemented with penicillin (500U/ml) and streptomycin (500μg/ml) and adult T. muris worms gently removed using fine forceps. Worms removed from SCID mice were maintained in RPMI-1640 media supplemented with penicillin (500U/ml) and streptomycin (500μg/ml) at approximately 37°C and studied on the same day. Using fine forceps, individual live worms were placed into 96 well plates containing 75μl of RPMI-1640 medium supplemented with penicillin (500U/ml) and streptomycin (500μg/ml) plus 1% final concentration of DMSO or compound dissolved in DMSO. In the primary screen the test compound concentration was 100μM. Plates were then incubated at 37°C, 5% CO2, and motility was analysed after 24 hours. Worm movement was quantified using an automated motility assay. This system gives an estimate of worm movement in each well by thresholding and quantifying pixel intensity variance over time. An earlier version of this system has been previously described. One adult T. muris worm was used per well, with one well per compound in each replicate of the primary screen. The primary screen was repeated each week for a period of four weeks giving four independent biological replicates from separate parasite batches for each compound. Dose-response curves were calculated with the four factor log-logistic model using the R package drc. The primary screen was carried out at 100μM final concentration. Assay plates were assigned unique IDs and statistical analysis was performed without knowledge of compound identities using R scripts. Once hit wells were identified, well/plate positions were mapped to compound identities using DataWarrior [28]. […] Compounds identified as having encouraging activity from the DMSO solution samples were then resynthesized for confirmatory testing.

Row | Compound | COMBINED_SCREEN_ACTIVITY | PRIMARY_SCREEN_MINUS_LOG_FOLD_CHANGE_MOVEMENT (adult T. muris motility) | SECONDARY_SCREEN_MINUS_LOG_FOLD_CHANGE_MOVEMENT (secondary screen, adult T. muris motility)
1 | COc1ccc(F)cc1-c1ccc2c(c1)N(CCN1CCOCC1)C(=O)COC2 [Compound 162] | -1.305 | -1.305 | –
2 | COc1ccccc1-c1ccc2c(c1)N(Cc1ccccc1Cl)C(=O)COC2 [Compound 151] | -1.249 | -1.249 | –
3 | Cn1cc(-c2ccc3c(c2)COCC(=O)N3Cc2ccccc2Cl)cn1 [Compound 113] | 0.5472 | 0.5472 | –
4 | COc1ccc(-c2ccc3c(c2)N(CCN2CCOCC2)C(=O)COC3)c(C)c1 [Compound 157] | -1.37 | -1.37 | –
5 | COc1ccc(-c2ccc3c(c2)N(CC2CC2)C(=O)COC3)cn1 [Compound 44] | -1.021 | -1.021 | –
6 | COc1ccc(F)cc1-c1ccc2c(c1)N(Cc1ccccc1)C(=O)COC2 [Compound 129] | 3.716 | 3.716 | –
7 | O=C1COCc2cc(Br)ccc2N1CC1CC1 [Compound 26] | -0.588 | -0.588 | –
8 | Cn1cc(-c2ccc3c(c2)N(Cc2ccccc2)C(=O)COC3)cn1 [Compound 59] | -0.5338 | -0.5338 | –
9 | CC(=O)Nc1cccc(-c2ccc3c(c2)N(CCc2ccccc2)C(=O)COC3)c1 [Compound 164] | 1.82 | 1.82 | –
10 | COc1cccc(CN2C(=O)COCc3ccc(Br)cc32)c1 [Compound 104] | -1.975 | -1.975 | –
11 | O=C1COCc2ccc(-c3ccc4ccccc4c3)cc2N1CCN1CCOCC1 [Compound 167] | 3.214 | 3.214 | –
12 | Cc1ccccc1CN1C(=O)COCc2ccc(Br)cc21 [Compound 81] | 11.5466 | 10.4743 | 12.6188
13 | COc1cccc(CN2C(=O)COCc3cc(-c4cccc(F)c4)ccc32)c1 [Compound 130] | 0.2069 | 0.2069 | –
14 | COCCN1C(=O)COCc2cc(Br)ccc21 [Compound 30] | 0.3958 | 0.3958 | –
15 | Cc1ccc(-c2cccc3c2COCC(=O)N3C)cc1C [Compound 11] | -0.1315 | -0.1315 | –
16 | O=C1COCc2ccc(-c3cccc(CO)c3)cc2N1CC1CC1 [Compound 41] | -1.108 | -1.108 | –
17 | Cc1ccccc1CN1C(=O)COCc2ccc(-c3cccnc3)cc21 [Compound 76] | -0.5388 | -0.5388 | –
18 | CN1C(=O)COCc2cc(-c3cccc(C#N)c3)ccc21 [Compound 10] | -1.704 | -1.704 | –
19 | Cn1cc(-c2ccc3c(c2)N(CC2CCCCC2)C(=O)COC3)cn1 [Compound 68] | -0.9119 | -0.9119 | –
20 | CC(C)N1C(=O)COCc2ccc(Br)cc21 [Compound 19] | -1.507 | -1.507 | –
21 | Cc1ccc(CN2C(=O)COCc3cc(-c4cccc(CO)c4)ccc32)cc1 [Compound 123] | -0.1619 | -0.1619 | –
22 | Cn1cc(-c2ccc3c(c2)COCC(=O)N3Cc2ccccc2)cn1 [Compound 58] | 0.8104 | 0.8104 | –
23 | O=C1COCc2ccc(Br)cc2N1Cc1ccc(C(F)(F)F)cc1 [Compound 160] | 8.379 | 8.379 | –
24 | CN1C(=O)COCc2c(-c3ccc(Cl)cc3)cccc21 [Compound 22] | -0.8438 | -0.8438 | –
25 | O=C1COCc2ccc(Br)cc2N1CCN1CCOCC1 [Compound 92] | -1.293 | -1.293 | –
26 | COc1ccc(-c2ccc3c(c2)N(CCc2ccccc2)C(=O)COC3)cc1OC [Compound 171] | 7.742 | 7.742 | –
